Assay results: patent EP0661271B1, “AZEPINE DERIVATIVES, PRODUCTION THEREOF, AND USE THEREOF AS SIGMA-RECEPTOR LIGANDS” (Asahi Kasei Kogyo Kabushiki Kaisha, priority 1992, dated 1994)

Legend:
[1] = tested on: apomorphine induced climbing; assay: Suppressive activity on apomorphine induced climbing in mice; format: in vivo; conditions: 30 minutes before apomorphine 2 mg/kg s.c., ICR mice; for Suppression rate (mg/kg, p.o): apomorphine single administered group = 100 %
Experimental: Administering dopamine agonist, apomorphine in mouse resulted various abnormal movings, and especially, a climbing the cage has been known to be correlated with human schizophrenia.
Compounds of the present invention were administered orally or intraperitoneally in ICR mice, male (Charles River Corp.), and after 30 minutes apomorphine 2 mg/kg was administered subcutaneously. Climbing behaviors of 3 minutes after 20-23 minutes of apomorphine administration were observed. Climbing behavior was observed by entering the mice in stainless steel made wire netting cage and measuring a time remaining above the upper part of half part of the cage at observing. A climbing time of apomorphine single administered group is set as 100 % and shortened time by administering the drug is shown in suppression rate.

σ-receptor = assay: Binding activity for σ-receptor, [3H]DTG displacement in rat brain membrane preparation; parameters: species or system Sprague-Dowley rat; conditions: for Ki: rat whole brain (except cerebella) membrane, [3H]DTG 3 nM, 25°C 60 minutes, compounds tested as hydrochloride, read-out: Sigma [^3H] DTG Ki

| Ki (σ-receptor) [nM] | Compound | further results |
| --- | --- | --- |
|  | CN(C)CCCN1c2ccccc2Sc2ccc(Cl)cc21 [Chlorpromazine, reference compound] | Suppression (mg/kg, i.p.) ([1]; 1 mg/kg i.p.): 40 % (1) |
| 0.88 | CC1(C)C2CC[C@]1(C)CN(CCC1C3CCCC1CCC3)C2 (stereo partly drawn) [Example 21, (1S)-3-[2-(bicyclo [3.3.1]nonan-9-yl)-1-ethyl]-1,8,8-trimethyl-3-azabicyclo [3.2.1] octane] | Suppression rate (mg/kg, p.o) ([1]; 30 mg/kg p.o.): 54 % (30) |
| 0.32 | CC1(C)C2CC[C@@]1(C)CN(CCC13CC4CC(CC(C4)C1)C3)C2 [Example 14, (1R)-3-[2-(1-adamantyl)ethyl]-1,8,8-trimethyl-3-azabicyclo[3.2.1] octane] |  |
| 0.58 | CC1(C)C2CC[C@]1(C)CN(CCC1C3CC4CC1CC(Cl)(C4)C3)C2 (stereo partly drawn) [Example 25, (1S)-3-[2-(5-chloro-2-adamantyl)ethyl]-1,8,8-trimethyl-3-azabicyclo [3.2.1] octane] | Suppression rate (mg/kg, p.o) ([1]; 30 mg/kg p.o.): 43 % (30) |
| 3.72 | CC1(C)C2CC[C@]1(C)CN(CCCCC1CCCCC1)C2 [Example 9, (1S)-3-(4-cyclohexyl-1-butyl)-1,8,8-trimethyl-3-azabicyclo[3.2.1] octane] |  |
| 2.22 | CC1(C)C2CC[C@@]1(C)CN(CCc1cccc3ccccc13)C2 [Example 45, (1R)-3-[2-(1-naphthyl)ethyl]-1,8,8-trimethyl-3-azabicyclo [3.2.1] octane] |  |
| 0.39 | (1S)-3-[2-(1-norbornyl)ethyl]-1,8,8-trimethyl-3-azabicyclo [3,2,1] octane [Example 2] |  |
| 9 | CC1(C)[C@H]2CC[C@]1(C)CN(CCc1cccc3ccccc13)C2 [Example 49, (1S)-3-[2-(1-naphtyl)ethyl]-1,8,8-trimethyl-3-azabicyclo-[3.2.1] octane] |  |
| 0.28 | CC1(C)C2CC[C@]1(C)CN(CCC1CCCCC1)C2 [Example 4, (1S)-3-(2-cyclohexylethyl)-1,8,8-trimethyl-3-azabicyclo[3.2.1] octane] |  |
| 0.87 | CC12CC3CC(C1)CC(CCN1CC4CC[C@](C)(C1)C4(C)C)(C3)C2 [Example 19, (1S)-3-[2-(3-methyl-1-adamantyl)ethyl]-1,8,8-trimethyl-3-azabicyclo [3.2.1] octane] |  |
| 0.67 | COC12CC3CC(C1)C(CCN1CC4CC[C@](C)(C1)C4(C)C)C(C3)C2 (stereo partly drawn) [Example 24, (1S)-3-[2-(5-methoxy-2-adamantyl)ethyl]-1,8,8-trimethyl-3-azabicyclo [3.2.1] octane] | Suppression rate (mg/kg, p.o) ([1]; 10 mg/kg p.o.): 78 % (10) |
| 0.44 | CC1(C)C2CC[C@]1(C)CN(CCC1C3CC4CC1CC(O)(C4)C3)C2 (stereo partly drawn) [Example 23, (1S)-3-[2-(5-hydroxy-2-adamantyl)ethyl]-1,8,8-trimethyl-3-azabicyclo [3.2.1] octane] | Suppression rate (mg/kg, p.o) ([1]; 10 mg/kg p.o.): 69 % (10) |
| 4.16 | CC1(C)[C@H]2CC[C@]1(C)CN(CC13CC4CC(CC1C4)C3)C2 [Example 20, (1S)-3-(3-noradamantylmethyl)-1,8,8-trimethyl-3-azabicyclo[3.2.1] octane] |  |
| 0.57 | CC1(C)C2CC[C@]1(C)CN(CCC1CCCCCC1)C2 [Example 7, (1S)-3-(2-cycloheptylethyl)-1,8,8-trimethyl-3-azabicyclo[3.2.1] octane] |  |
| 8.57 | CC1(C)C2CC[C@@]1(C)CN(CCc1ccc3ccccc3c1)C2 [Example 46, (1R)-3-[2-(2-naphthyl)ethyl]-1,8,8-trimethyl-3-azabicyclo [3.2.1] octane] | Suppression (mg/kg, i.p.) ([1]; 10 mg/kg i.p.): 45 % (10) |
|  | CC1(C)C2CC[C@]1(C)CN(CCC1C3CC4CC(C3)C(c3ccccc3)C1C4)C2 (stereo partly drawn) [Example 28, (1S)-3-[2-(4-phenyl-2-adamantyl)ethyl]-1,8,8-trimethyl-3-azabicyclo [3.2.1] octane] | Suppression rate (mg/kg, p.o) ([1]; 30 mg/kg p.o.): 74 % (30) |
| 0.26 | CC1(C)C2CC[C@]1(C)CN(CCC13CC4CC(CC(C4)C1)C3)C2 [Example 1, (1S)-3-[2-(1-adamantyl)ethyl]-1,8,8-trimethyl-3-azabicyclo [3.2.1] octane] | Suppression rate (mg/kg, p.o) ([1]; 30 mg/kg p.o.): 37 % (30) |
| 1.6 | CC1(C)C2CC[C@]1(C)CN(CCC1C3CC4CC(C3)C(O)C1C4)C2 (stereo partly drawn) [Example 27, (1S)-3-[2-(4-hydroxy-2-adamantyl)ethyl]-1,8,8-trimethyl-3-azabicyclo [3.2.1] octane] |  |
|  | Cc1ccccc1NC(=N)Nc1ccccc1C [DTG, 1,3-di(2-tolyl) guanidine, reference compound] | Kd (σ-receptor; radioligand constant used to calculate Ki, read-out: Kd, affinity of radioactive ligand for receptor): 10.6 nM |
| 28.3 | CC1(C)C2CC[C@]1(C)CN(CCc1ccc3ccccc3c1)C2 [Example 50, (1S)-3-[2-(2-naphthyl)ethyl]-1,8,8-trimethyl-3-azabicyclo [3.2.1] octane] | Suppression (mg/kg, i.p.) ([1]; 1 mg/kg i.p.): 50 % (1) |
| 0.16 | CC1(C)C2CC[C@@]1(C)CN(CCC1CCCCC1)C2 [Example 6, (1R)-3-(2-cyclohexylethyl)-1,8,8-trimethyl-3-azabicyclo[3.2.1] octane] |  |
| 0.32 | CC1(C)C2CC[C@]1(C)CN(CCC1C3CC4CC(C3)CC1C4)C2 (stereo partly drawn) [Example 15, (1S)-3-[2-(2-adamantyl)ethyl]-1,8,8-trimethyl-3-azabicyclo[3.2.1] octane] | Suppression rate (mg/kg, p.o) ([1]; 10 mg/kg p.o.): 78 % (10) |
| 2.23 | CC1CCC(CCN2CC3CC[C@](C)(C2)C3(C)C)CC1 (stereo partly drawn) [Example 18, (1S)-3-[2-(4-methylcyclohexyl)ethyl]-1,8,8-trimethyl-3-azabicyclo [3.2.1] octane] |  |
| 0.5 | CC1(C)C2CC[C@]1(C)CN(CCC1CCCCCCC1)C2 [Example 8, (1S)-3-(2-cyclooctylethyl)-1,8,8-trimethyl-3-azabicyclo[3,2,1] octane] |  |
| 0.41 | CC1(C)C2CC[C@@]1(C)CN(CCC1C3CC4CC(C3)CC1C4)C2 (stereo partly drawn) [Example 16, (1R)-3-[2-(2-adamantyl)ethyl]-1,8,8-trimethyl-3-azabicyclo [3.2.1] octane] | Suppression rate (mg/kg, p.o) ([1]; 30 mg/kg p.o.): 79 % (30) |
| 0.92 | CC1(C)C2CC[C@]1(C)CN(CCCC1CCCCC1)C2 [Example 10, (1S)-3-(3-cyclohexylpropyl)-1,8,8-trimethyl-3-azabicyclo[3.2.1] octane] |  |

| Compound | Ki (σ-receptor) [nM] | further results |
| --- | --- | --- |
| CC1(C)C2CC[C@]1(C)CN(CCc1cccs1)C2 [Example 55, (1S)-3-[2-(2-thienyl)ethyl]-1,8,8-trimethyl-3-azabicyclo [3.2.1] octane] | 7.04 |  |
| CC1(C)C2CC[C@]1(C)CN(C1CCCCC1)C2 [Example 13, (1S)-3-cyclohexyl-1,8,8-trimethyl-3-azabicyclo[3.2.1] octane] | 6.37 |  |
| CC1(C)[C@@H]2CC[C@@]1(C)CN(CCc1ccncc1)C2 [Example 48, (1R)-3-[2-(4-pyridyl) ] ethyl-1,8,8-trimethyl-3-azabicyclo [3.2.1] octane] | 15.1 |  |
| CC1(C)C2CC[C@@]1(C)CN(CCc1ccccn1)C2 [Example 47, (1R)-3-[2-(2-pyridyl)ethyl]-1,8,8-trimethyl-3-azabicyclo [3.2.1] octane] | 16.1 |  |
| CC1(C)C2CC[C@]1(C)CN(CCC1CCCC1)C2 [Example 3, (1S)-3-(2-cyclopentylethyl)-1,8,8-trimethyl-3-azabicyclo[3.2.1] octane] | 0.53 |  |
| CC1(C)C2CC[C@]1(C)CN(CCc1ccccn1)C2 [Example 51, (1S)-3-[2-(2-pyridyl)ethyl]-1,8,8-trimethyl-3-azabicyclo [3.2.1] octane] | 31.8 |  |
| CC1(C)C2CC[C@@]1(C)CN(CC1CCCCC1)C2 [Example 12, (1R)-3-cyclohexylmethyl-1,8,8-trimethyl-3-azabicyclo[3.2.1] octane] | 2.53 |  |
| CC1(C)C2CC[C@]1(C)CN(CCc1ccncc1)C2 [Example 53, (1S)-3-[2-(4-pyridyl)ethyl]-1,8,8-trimethyl-3-azabicyclo [3.2.1] octane] | 21.5 |  |
| CC1(C)C2CC[C@]1(C)CN(CC1CCCCC1)C2 [Example 11, (1S)-3-cyclohexylmethyl-1,8,8-trimethyl-3-azabicyclo[3.2.1] octane] | 3.63 |  |
| CC1(C)C2CC[C@]1(C)CN(CCc1cccnc1)C2 [Example 52, (1S)-3-[2-(3-pyridyl)ethyl]-1,8,8-trimethyl-3-azabicyclo [3.2.1] octane] | 79.5 |  |
